Experimental data published in patent publication US9253983B2, “Triazole compound and use thereof” (KUREHA CORPORATION, priority 2011, dated 2016).

Key:
Gibberella fujikuroi = test: Test 1 for antifungal effect, plate medium: G.f; format: cell-based; settings: PDA plate medium
Summary of the method: (§1)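 Readout: % mycelial growth inhibition, R=100(dc−dt)/dc, from colony diameters on treated (dt) vs compound-free (dc) PDA plates. Compound was added in DMSO to molten PDA (~60° C); 4 mm plugs incubated 1–7 days at optimum growth temperature.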

Botrytis cinerea [1] = test: Test 1 for antifungal effect, plate medium: B.c; format: cell-based; settings: PDA plate medium
Summary of the method: as §1

Phaeosphaeria nodorum = test: Test 1 for antifungal effect, plate medium: P.n; format: cell-based; settings: PDA plate medium
Summary of the method: as §1

Penicillium italicum = test: Test 2 for antifungal effect, plate medium: P.i; format: cell-based; settings: PDA plate medium
Summary of the method: (§2)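 Compound in DMSO was mixed into PDA medium at about 60° C to make plates at a set concentration. These were inoculated with 4 mm mycelial plugs and grown 1–7 days at each pathogen's optimum temperature. Colony diameter was compared with compound-free plates to give growth inhibition, rated on a 1–5 scale.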

Microdochium nivale = test: Test 1 for antifungal effect, plate medium: M.n; format: cell-based; settings: PDA plate medium
Summary of the method: as §1

Septoria tritici = test: Test 2 for antifungal effect, plate medium: S.t; format: cell-based; settings: PDA plate medium
Summary of the method: as §2

Botrytis cinerea [2] = test: Controlling effect on cucumber gray mold by foliage spray treatment (Tests 1 and 2); format: in vivo; settings: four days after inoculation
Gaeumannomyces graminis = test: Test 1 for antifungal effect, plate medium: G.g; format: cell-based; settings: PDA plate medium
Summary of the method: as §1

Puccinia recondita = test: Efficacy of seed treatment on wheat brown rust; format: in vivo; settings: wheat seed treatment 20 g ai/100 kg seeds, 12 days after inoculation
Method: A pot experiment was performed to evaluate the efficacy of seed treatment in controlling wheat leaf rust. Compound (1-1a) and Compound (1-2a), each of which was dissolved in DMSO to make up such a concentration that the seeds would be treated in treatment amount of 20 g ai/100 kg seeds, were each applied to wheat seeds in a vial, and thereafter 8 wheat seeds were sowed on an 80-cm^2 pot. The pot was kept in a greenhouse with water supplied to its bottom. 21 days after the sowing, the wheat seeds were inoculated with Puccinia recondita, and kept in a wet box for 2 days. After that, the pot was again kept in the greenhouse with water supplied to its bottom. 12 days after the inoculation, the percentage of affected area was found, and the protective value was calculated by the following equation. Protective value (%)=(1−(Percentage of affected area in treated region/Percentage of affected area in untreated region))×100

Rhizopus oryzae = test: Test 1 for antifungal effect, plate medium: R.o; format: cell-based; settings: PDA plate medium
Summary of the method: as §1

CC1(CCl)CCC(Cc2ccc(F)cc2)C1(O)Cn1cncn1 (single isomer, unassigned) [Compound (1-2a), (1,2-cis, 1,5-cis)-5-(4-fluorobenzyl)-2-chloromethyl-2-methyl-1-(1H-1,2,4-triazole-1-ylmethyl)cyclopentanol]
Antifungal index (mycelial growth inhibition rate) (Gibberella fujikuroi; 0.16 mg/L): 4 (Less than 90% but not less than 80%)
Antifungal index (mycelial growth inhibition rate) (Gibberella fujikuroi; 0.31 mg/L): 5 (90% or greater)
Antifungal index (mycelial growth inhibition rate) (Gibberella fujikuroi; 0.63 mg/L): 5 (90% or greater)
Antifungal index (mycelial growth inhibition rate) (Gibberella fujikuroi; 1.25 mg/L): 5 (90% or greater)
Antifungal index (mycelial growth inhibition rate) (Gibberella fujikuroi; 2.50 mg/L): 5 (90% or greater)
Antifungal index (mycelial growth inhibition rate) (Botrytis cinerea [1]; 0.16 mg/L): 3 (Less than 80% but not less than 70%)
Antifungal index (mycelial growth inhibition rate) (Botrytis cinerea [1]; 0.31 mg/L): 5 (90% or greater)
Antifungal index (mycelial growth inhibition rate) (Botrytis cinerea [1]; 0.63 mg/L): 5 (90% or greater)
Antifungal index (mycelial growth inhibition rate) (Botrytis cinerea [1]; 1.25 mg/L): 5 (90% or greater)
Antifungal index (mycelial growth inhibition rate) (Botrytis cinerea [1]; 2.50 mg/L): 5 (90% or greater)
Antifungal index (mycelial growth inhibition rate) (Phaeosphaeria nodorum; 0.16 mg/L): 1 (Less than 60%)
Antifungal index (mycelial growth inhibition rate) (Phaeosphaeria nodorum; 0.31 mg/L): 2 (Less than 70% but not less than 60%)
Antifungal index (mycelial growth inhibition rate) (Phaeosphaeria nodorum; 0.63 mg/L): 5 (90% or greater)
Antifungal index (mycelial growth inhibition rate) (Phaeosphaeria nodorum; 1.25 mg/L): 5 (90% or greater)
Antifungal index (mycelial growth inhibition rate) (Phaeosphaeria nodorum; 2.50 mg/L): 5 (90% or greater)
Antifungal index (mycelial growth inhibition rate) (Penicillium italicum; 0.04 mg/L): 1 (Less than 60%)
Antifungal index (mycelial growth inhibition rate) (Penicillium italicum; 0.08 mg/L): 1 (Less than 60%)
Antifungal index (mycelial growth inhibition rate) (Penicillium italicum; 0.16 mg/L): 3 (Less than 80% but not less than 70%)
Antifungal index (mycelial growth inhibition rate) (Penicillium italicum; 0.31 mg/L): 4 (Less than 90% but not less than 80%)
Antifungal index (mycelial growth inhibition rate) (Penicillium italicum; 0.63 mg/L): 5 (90% or greater)
Antifungal index (mycelial growth inhibition rate) (Penicillium italicum; 1.25 mg/L): 5 (90% or greater)
Antifungal index (mycelial growth inhibition rate) (Microdochium nivale; 0.16 mg/L): 1 (Less than 60%)
Antifungal index (mycelial growth inhibition rate) (Microdochium nivale; 0.31 mg/L): 1 (Less than 60%)
Antifungal index (mycelial growth inhibition rate) (Microdochium nivale; 0.63 mg/L): 2 (Less than 70% but not less than 60%)
Antifungal index (mycelial growth inhibition rate) (Microdochium nivale; 1.25 mg/L): 3 (Less than 80% but not less than 70%)
Antifungal index (mycelial growth inhibition rate) (Microdochium nivale; 2.50 mg/L): 5 (90% or greater)
Antifungal index (mycelial growth inhibition rate) (Septoria tritici; 0.04 mg/L): 1 (Less than 60%)
Antifungal index (mycelial growth inhibition rate) (Septoria tritici; 0.08 mg/L): 1 (Less than 60%)
Antifungal index (mycelial growth inhibition rate) (Septoria tritici; 0.16 mg/L): 1 (Less than 60%)
Antifungal index (mycelial growth inhibition rate) (Septoria tritici; 0.31 mg/L): 1 (Less than 60%)
Antifungal index (mycelial growth inhibition rate) (Septoria tritici; 0.63 mg/L): 1 (Less than 60%)
Antifungal index (mycelial growth inhibition rate) (Septoria tritici; 1.25 mg/L): 3 (Less than 80% but not less than 70%)
Protective value (%) (Botrytis cinerea [2]; foliage spray 3.1 mg/L, 1,000 L/ha): 40%
Protective value (%) (Botrytis cinerea [2]; foliage spray 12.5 mg/L, 1,000 L/ha): 100%
Antifungal index (mycelial growth inhibition rate) (Gaeumannomyces graminis; 0.16 mg/L): 1 (Less than 60%)
Antifungal index (mycelial growth inhibition rate) (Gaeumannomyces graminis; 0.31 mg/L): 4 (Less than 90% but not less than 80%)
Antifungal index (mycelial growth inhibition rate) (Gaeumannomyces graminis; 0.63 mg/L): 5 (90% or greater)
Antifungal index (mycelial growth inhibition rate) (Gaeumannomyces graminis; 1.25 mg/L): 5 (90% or greater)
Antifungal index (mycelial growth inhibition rate) (Gaeumannomyces graminis; 2.50 mg/L): 5 (90% or greater)
Protective value (%) (Puccinia recondita): 100%
Antifungal index (mycelial growth inhibition rate) (Rhizopus oryzae; 0.16 mg/L): 1 (Less than 60%)
Antifungal index (mycelial growth inhibition rate) (Rhizopus oryzae; 0.31 mg/L): 1 (Less than 60%)
Antifungal index (mycelial growth inhibition rate) (Rhizopus oryzae; 0.63 mg/L): 3 (Less than 80% but not less than 70%)
Antifungal index (mycelial growth inhibition rate) (Rhizopus oryzae; 1.25 mg/L): 5 (90% or greater)
Antifungal index (mycelial growth inhibition rate) (Rhizopus oryzae; 2.50 mg/L): 5 (90% or greater)
